Experiments:
human leptin = test: Mouse subcutaneous injection of modified synthetic leptin mRNA, human leptin ELISA; assay type: in vivo; details: human leptin in mouse plasma, 10 μg leptin mRNA
Procedure: Prior to subcutaneous injection, mouse body weights were recorded and diet weighted, with mice grouped according to their body weights. The mice were manually restrained and placed on a work surface. Their scruffs were pinched and lifted away from the underlying muscle, the space into which was inserted a 25 gauge needle connected with a 1 ml syringe. The syringe plunger was pulled backwards in such a way as to ensure no fluid was drawn into the syringe, and then the desired volume of leptin mRNA was hand injected with moderate pressure and speed. The needle was then withdrawn and the mice returned to their cages.
8-9 week old, male C57BL/6 mice were used for the in vivo study. FPLC purified modified synthetic leptin mRNA (SEQ ID NO: 5) in which the uridines were substituted with pseudouridine (N:P molar ratio=8:1) packaged in multiple cationic lipid were diluted in injectable saline at a dose of 10 μg per average group body weight.
On day 0, animals were weighed and sorted according to average body weight. ice were dosed at 9 AM and blood was taken at 9 AM on day 0. Blood was also taken at 9 AM on each of days 1 and 2 and assessed for leptin protein levels. Body weight and food intake were also recorded.
Human leptin in mouse plasma was measured by ELISA. Antibodies purchased from the R&D Systems duoset (Cat# DY398E, part#840279 for capture antibody and part#840280 for detection antibody) were reconstituted using PBS and titered, again using PBS. The capture antibody was coated at 4 ug/ml in 30 ul/well on a white Nunc® Maxisorp 384 well plate (Cat#460372). After an overnight incubation at room temperature the capture antibody was aspirated and the plate blocked for 2 hours at room temperature with 90 ul/well of KPL milk blocker (Cat#50-82-00). Once the incubation was completed the plate was aspirated and recombinant standards and samples were added to the plate at 30 ul/well for 2 hours at 37° C. while shaking at 600 rpm. Sample/standard dilutions were made using casein sample diluent. Washing/aspiration 3 times with 100 ul/well followed, using Teknova plate wash solution (Cat# P1192). Next, detection antibody was diluted using casein detection antibody diluent to 12.5 ng/ml and added at 30 ul/well for 2 hours room temperature. After this incubation, the plate was washed again and a solution of poly-streptavidin-HRP (Cat#21140) at a 1:1250 dilution in HRP dilution buffer was added to each well (30 ul/well) and incubated for 30 minutes room temperature. A final wash/aspiration removed the HRP solution and a chemiluminescent substrate was added at 30 ul/well (Cat#1859678 & 1859679). The plate was quickly read using a SpectramaxM5 plate reader with a 50 ms integration time. The dynamic range of the ELISA is from 100-2,000 pg/ml (6.25-125 pM) of human leptin. The assay is applicable to plasma from mice, rats and cynomolgus monkeys.

[1] = Measurement of mRNA encapsulation (Quant-iT Ribogreen); assay type: physicochemical; details: leptin mRNA in lipid nanoparticles (cationic lipid, DSPC, cholesterol, stealth lipid)
Procedure: All equipment and disposable supplies were certified free of RNase activity by the manufacturer or rendered RNase free by use of the RNaseZap reagent (LifeTechnologies). mRNA was encapsulated at a cationic lipid amine to mRNA phosphate (N:P) molar ratio of 4:1. Lipids (cationic lipid, DSPC, cholesterol and lipidated PEG or stealth lipid) were dissolved in ethanol. The molar ratios were […], respectively. The mixture was sonicated briefly, then gently agitated for 5 minutes and then maintained at 37° C. until use. mRNA was exchanged into citrate buffer pH 5.8-6.0 by use of Amicon Ultra-15 centrifugal concentrators, and the final concentration was adjusted to 0.5 mg/ml and held at 37° C. until use. An equal volume of lipids in ethanol, mRNA in citrate buffer, and citrate buffer alone were drawn into disposable syringes. Tubing leading from syringes containing lipids and mRNA are attached to the T junction, and tubing leading from the syringe containing citrate buffer alone was paired with the tubing exiting the T-junction over a collection vessel containing a stir bar on an active stir plate. Syringes were placed in a syringe pump set to expel contents at a flow rate of 1 ml per minute.
The pump was activated, and the collected mRNA in lipid nanoparticles was transferred to SnakeSkin dialysis tubing (10,000 MWCO, Thermo Scientific). Material was dialyzed against RNAse- and pyrogen-free 1× phosphate buffered saline overnight at 4° C.
Percent encapsulation of mRNA in lipid nanoparticles was determined using the Quant-iT Ribogreen RNA Assay kit (Life Technologies). The LNP-mRNA suspension was assayed in buffer (mRNA outside the particle), and buffer plus Triton X-100 detergent (total mRNA). The difference calculated was the mRNA inside the particle. A 1000 ng/mL stock from the RNA provided in the kit was prepared and used to generate a standard curve (0 ng/ml, 15.63-1000 ng/ml) in TE and TE+0.75% Triton X-100. LNP-mRNA samples in TE buffer and TE buffer+0.75% Triton X-100 were prepared with appropriate dilution so that reading was in the range of standard curve (400-2,000 fold). In a 384-well plate (Costar non-treated #3573) 0.04 ml of standard (in duplicate) or sample (in triplicate) were added per well. Ribogreen reagent was diluted 240-fold in TE buffer and added 0.06 ml per well. The contents of wells were mixed and fluorescence was measured (excitation=480 nm, emission=520 nm). Background values (no RNA) were subtracted from standard and test sample values and the concentrations of RNA were determined in the samples using the standard curves. The percent encapsulation of the sample was determined by dividing the difference in concentrations between sample+triton and sample in buffer alone by the sample+triton concentration.

[2] = Particle size of lipid nanoparticle (dynamic light scattering, Malvern Zetasizer); assay type: physicochemical
Outline: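 Sizes are average diameters of fully formed nanoparticles measured by dynamic light scattering. Samples were diluted in PBS to a count rate of about 200–400 kcts. Values are intensity-weighted Z-average sizes.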

Compound	Leptin expression SC-C57BI/6, 24 h (human leptin)	% encapsulation [1]	Size (nm) ([2]; FVII siRNA LNP, Chol/DSPC/PEG-DMG, molar ratio 45/44/9/2, Z-average)	Size (nm) ([2]; FVII siRNA LNP, Chol/DSPC/S010, molar ratio 45/44/9/2, Z-average)	Size (nm) ([2]; PLK1-424 siRNA LNP, Chol/DSPC/S010 45/44/9/2)	Size (nm) ([2]; leptin mRNA lipid nanoparticles)
CCCCC/C=C\C/C=C\CCCCCCCC(=O)OCCCCOc1cc(CN(C)C)cc(OCCCCOC(=O)CCCCCCC/C=C\C/C=C\CCCCC)c1 [Example 38, (9Z,9′Z,12Z,12′Z)-((5-((dimethylamino)methyl)-1,3-phenylene)bis(oxy))bis(butane-4,1-diyl)bis(octadeca-9,12-dienoate)]	0.99 ng/mL	–	–	–	–	–
CCCCCCCCCCOC(=O)CCCCCCCOc1cc(CN(C)C)cc(OCCCCCCCC(=O)OCCCCCCCCCC)c1 [Example 57, didecyl 8,8′-((5-((dimethylamino)methyl)-1,3-phenylene)bis(oxy))dioctanoate]	–	96.0%	108.4 nm	123.8 nm	116.3 nm	127.8 nm

— patent US10124065B2, “Lipids and lipid compositions for the delivery of active agents” (Novartis AG, priority 2013, dated 2018)
